Data on eight compounds can be found in patent EP4389150A1, “CONJUGATE COMPOUNDS AND THEIR USE IN CANCER TREATMENT AND DIAGNOSIS” (Technische Universität München, priority 2022, dated 2024).

By IC50 is commonly meant the midpoint of a concentration-inhibition curve.

One data set addresses T1, PSMA (Homo sapiens, UniProt Q04609).
T1 construct: endogenous in cells; host or cells: LNCaP cells
Briefly: IC50 determination by competition with [68Ga]-PSMA-617 on LNCaP cells. As to conditions: [68Ga]-PSMA-617 0.4 nM, 60 min on ice, natGa-labelled ligands. The format is binding. As for the experimental part: In the meantime, dilution series of the compounds were prepared in 1% BSA (w/v)/HBSS in a separate 96 U-bottom deep well plate ranging from 12 µM to 153.6 pM in 1:5 dilution steps. Next, solutions (25 µL/well) of either 1% BSA (w/v)/HBSS (control) or of the respective dilution series were transferred to the LNCaP cells containing plate. Hereby, each concentration was pipetted in triplicates and each experiment was repeated three times. Subsequently, [^68Ga]-PSMA-617 (25 µL/well; 0.4 nM final concentration; AM = 26-30 MBq/nmol) in 1% BSA (w/v)/HBSS was added to all wells and the plate was incubated for 60 min on ice. Afterwards, the experiment was terminated by centrifugation at 600 g for 3 min and removal of the supernatant. The cells were then washed with ice-cold HBSS (150 µL/well), centrifuged (600 g, 3 min), and the supernatant as well as the washing fraction were combined, representing the amount of free, unbound radioligand. Bound radioligand was obtained by lysis of the cells with 1.0 N NaOH (150 µL/well; 10 min on ice). Afterwards, the plate was washed a second time with 1.0 N NaOH (150 µL/well). Hereby, the washing step was combined with the NaOH fraction. The quantification of bound and free radioligand was finally accomplished via measuring the samples in a γ-counter.

A further data set has as its system LNCaP cells. As to the kind of experiment: Binding and internalization (cell uptake) of 68Ga-labelled PSMA ligands in LNCaP cells. The format is cell-based. As for the experimental part: To determine ligand internalization, LNCaP cells were seeded in a 96 V-bottom well plate at a density of 100,000 cells/well in 5% BSA (w/v)/RPMI medium (100 µL/well) and incubated for 30 min at 37 °C. Afterwards, solutions (25 µL/well) of either 5% BSA (w/v)/RPMI medium or of 2-PMPA (final concentration: 10 µM) in 5% BSA (w/v)/RPMI medium for blockade were added. Then, a solution of the ^68Ga-labeled PSMA-ligand (25 µL/well; 0.4 nM final concentration; AM = 26-30 MBq/nmol) was added to all wells, and the cells were incubated for 5, 15, 30, and 60 min, respectively, at 37 °C. Hereby, each time point was performed in triplicates and each experiment was repeated three times. The internalization process was terminated by placing the plate for 5 min on ice. The free radioligand was obtained by centrifugation of the plate at 600 g for 3 min and removal of the supernatant. Each well was then washed with ice-cold PBS and the fractions of the first two steps were combined. For removal of cell-bound PSMA-ligand, the cells were treated in a next step with ice-cold 2-PMPA-solution (10 µM in PBS; 150 µL/well; 15 min on ice), centrifuged (600 g, 3 min), and washed with ice-cold PBS (150 µL/well). The fractions were again combined. For the analysis of internalized radioligand, the fractions of a 1.0 N NaOH (150 µL/well; 10 min on ice) treatment as well as a concomitant washing step with 1.0 N NaOH (150 µL/well) were pooled. Free, surface bound, and internalized activity, respectively, was measured in a γ-counter.

Data set [1] is described as follows: Lipophilicity, n-octanol/PBS distribution coefficient. The format is physicochemical. As for the experimental part: Lipophilicity of the conjugates was determine after radiolabeling with ^68Ga. The PSMA ligand (0.80 MBq) was dissolved in PBS (500 µL/pH 7.4) in a reaction vial (1.5 mL; n = 10). Afterwards, n-octanol was added (500 µL) and the mixture was rigorously vortexed for 3 min. Subsequent centrifugation (Biofuge 15, Heraus Sepatech, Osterode, Germany) at 13,000 rpm for 5 min led to a phase separation. After measuring 100 µL of each phase in a γ-counter, the distribution coefficient (logD(O/PBS)) was calculated with Microsoft Excel.

Data set [2] relates to PC3-PIP/PC3-flu bilateral tumor model. The format is in vivo, Athymic nude mice. The following applies: for biodistribution profile: 1 h post-injection; for tumor uptake (PET/CT, biodistribution): PSMA+ PC3-PIP versus PSMA- PC3-Flu tumors.
Excerpt: In vivo experiment. Athymic nude mice were subcutaneously injected with 4×10^6 PC3-PIP (PSMA+) and 3×10^6 PC3-Flu (PSMA-) cells to produce a bilateral tumor model.
At the completion of the imaging study, mice were euthanized and organs were resected, weight, and analyzed by gamma counting to determine tracer biodistribution. Data are ported as percentage of injected activity per gram of tissue (%IA/g).
At the completion of the imaging study, mice were euthanized and organs were resected, weighted, and analyzed by gamma counting to determine tracer biodistribution. Biodistribution data are reported as percentage of injected dose per gram of tissue (%ID/g).
The next data set can be described thus: Serum stability. The format is in vitro ADME. As to conditions: 37 °C; for stable (intact) after incubation in human serum: 2 hours; for intact after incubation in human serum: 24 hours. Here is the method: For serum stability analysis, 13.5 µL human serum were mixed with 1.5 µL of an aqueous solution of the test compound (200 µM final concentration) and incubated at 37 °C for 0.5, 1, 2, and 24 h, respectively. Afterwards, 25.0 µL MeCN were added, the suspension was centrifuged (14,000 rpm, 30 min, 4 °C), the supernatant was recovered, and finally analyzed by HPLC-ESI-MS using a linear elution gradient from 10 to 95% (v/v) MeCN/0.1% (v/v) TFA in water/0.1% (v/v) TFA for 15 min.

The test system of the next data set is PSMA+ (LNCaP). Briefly: Cell viability (Alamar Blue), monotherapy, PSMA+ cells. The format is cell-based. As to conditions: 20 µM, 72h. As for the experimental part: Black, clear-bottom 96 well culture plates were coated with poly-L-lysine. Afterwards, the plates were washed with PBS (1 × 100 µL), cells were seeded (2000 cells/well for PC3, 10000 cells/well for LNCaP), and cultured for 24 h (PC3) or 48 h (LNCaP) at 37 °C. The culture medium was removed, and new culture medium containing 10 mM GSH-OEt was added and incubated for 1 h at 37 °C. After removal of the GSH-OEt medium, new culture medium containing the PSMA-Ruc conjugates was added. After 72 h of incubation at 37 °C, cells were treated with Alamar Blue for visualization of cell viability. […] Each data points represents one biological replicate.
On the technique in general: The colour change of resazurin is a common sign of viable cells or microbes.

The next data set deals with late stage mCRPC. As to conditions: late stage mCRPC patients, versus 11.3 months with standard therapy; Sartor et al., 2021; cited from earlier work.
The mark [3] stands for this setting: 68Ga-labelled, 2 nmol via tail vein, 60 min p.i.

Like-named read-outs stand apart in the source and are kept apart here.

T1 sequence (Q04609 whole entry): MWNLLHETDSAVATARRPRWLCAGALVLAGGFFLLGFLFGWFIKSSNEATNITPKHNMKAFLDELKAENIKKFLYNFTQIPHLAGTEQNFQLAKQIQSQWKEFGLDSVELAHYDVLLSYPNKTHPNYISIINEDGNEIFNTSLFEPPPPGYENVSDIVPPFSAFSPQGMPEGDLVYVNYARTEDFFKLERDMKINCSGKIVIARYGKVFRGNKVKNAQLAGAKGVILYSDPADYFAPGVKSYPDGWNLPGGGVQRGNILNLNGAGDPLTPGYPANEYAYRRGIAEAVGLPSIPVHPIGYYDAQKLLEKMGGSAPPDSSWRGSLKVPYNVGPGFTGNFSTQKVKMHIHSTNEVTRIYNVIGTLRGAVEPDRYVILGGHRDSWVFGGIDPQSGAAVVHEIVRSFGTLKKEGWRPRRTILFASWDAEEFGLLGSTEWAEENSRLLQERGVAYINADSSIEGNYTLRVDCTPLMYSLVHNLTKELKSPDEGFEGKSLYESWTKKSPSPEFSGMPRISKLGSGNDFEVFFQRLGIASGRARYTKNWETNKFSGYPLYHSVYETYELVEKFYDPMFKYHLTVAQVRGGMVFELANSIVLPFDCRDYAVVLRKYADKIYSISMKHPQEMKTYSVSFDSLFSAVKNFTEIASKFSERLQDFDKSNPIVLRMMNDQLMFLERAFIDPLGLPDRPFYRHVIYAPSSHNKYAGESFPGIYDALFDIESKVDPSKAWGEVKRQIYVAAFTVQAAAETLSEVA

At PSMA, `CN(Cc1ccc(-c2[nH]c3cc(F)cc4c3c2CCNC4=O)cc1)C(=O)CCSSCCC(=O)NCCCC[C@@H](NC(=O)CCC(C(=O)O)N1CCN(CC(=O)O)CCN(CC(=O)O)CCN(CC(=O)O)CC1)C(=O)N[C@H](CC(=O)O)C(=O)N[C@H](Cc1ccc(O)cc1)C(=O)N[C@H](Cc1ccccc1)C(=O)N[C@@H](Cc1ccc2ccccc2c1)C(=O)NCCCCCC(=O)NCCCC[C@H](NC(=O)N[C@@H](CCC(=O)O)C(=O)O)C(=O)O` (single isomer, unassigned) [Conjugate 11] had a half-inhibitory concentration (IC50) of 5.34 ± 1.45 nM. In addition, the “% bound of total applied dose” value in the data set with LNCaP cells is 6.45 ± 1.16%. Further, the logD in data set [1] (pH 7.4) was -3.11 ± 0.08. Besides, the biodistribution profile result in data set [2] (68Ga-labelled) was “uptake limited to PSMA-expressing tumors and kidneys”. Further, the “tumor uptake (PET/CT, biodistribution)” value in data set [2] (60 min p.i.) was “uptake in PSMA+ PC3-PIP tumors and no accumulation in PSMA- PC3-Flu tumors”. For the same compound, in the data set “Serum stability”, the “stable (intact) after incubation in human serum” value was determined as 93% and the “intact after incubation in human serum” value came to 74%.
On to `CN(Cc1ccc(-c2[nH]c3cc(F)cc4c3c2CCNC4=O)cc1)C(=O)CCSSCCC(=O)NCCCCN1CCN(CC(=O)O)CCN(C(CCC(=O)N[C@H](CC(=O)O)C(=O)N[C@H](CC(=O)O)C(=O)NCCC(=O)NC[C@H]2CC[C@H](C(=O)N[C@@H](Cc3ccc4ccccc4c3)C(=O)NCCCC[C@@H](NC(=O)CC[C@H](NC(=O)N[C@@H](CCC(=O)O)C(=O)O)C(=O)O)C(=O)O)CC2)C(=O)O)CCN(CC(=O)O)CC1` (single isomer, unassigned) [Conjugate 18], for which, in data set [2] (setting [3]), the PiP/muscle ratios is listed as above 25 and the “PiP:Flu ratios” value is listed as above 8. Moreover, the “tumor uptake (PET/CT, biodistribution)” value in data set [2] (60 min p.i.) is “selective uptake in PC3-PiP tumors and low uptake in PC3-Flu tumors and other organs”.
Turning to `CN(Cc1ccc(-c2[nH]c3cc(F)cc4c3c2CCNC4=O)cc1)C(=O)CCSSCCC(=O)NCCCC[C@@H](NC(=O)CCC(C(=O)O)N1CCN(CC(=O)O)CCN(CC(=O)O)CCN(CC(=O)O)CC1)C(=O)N[C@H](CC(=O)O)C(=O)NCCC(=O)NC[C@H]1CC[C@H](C(=O)N[C@@H](Cc2ccc3ccccc3c2)C(=O)NCCCC[C@H](NC(=O)N[C@@H](CCC(=O)O)C(=O)O)C(=O)O)CC1` (stereo partly drawn) [Conjugate 9], the IC50 on PSMA is 3.03 ± 0.2 nM. Besides, in the data set with LNCaP cells, the “% bound of total applied dose” value is recorded as 8.00 ± 1.27%. In data set [1] (pH 7.4), this compound came in with a logD of -2.1 ± 0.24. Moreover, the biodistribution profile entry in data set [2] (68Ga-labelled) was “uptake is limited to PSMA+ tumors and kidneys”.
In turn, `CN(Cc1ccc(-c2[nH]c3cc(F)cc4c3c2CCNC4=O)cc1)C(=O)CCCCCCC(=O)NCCCC[C@@H](NC(=O)CCC(C(=O)O)N1CCN(CC(=O)O)CCN(CC(=O)O)CCN(CC(=O)O)CC1)C(=O)N[C@H](CC(=O)O)C(=O)NCCC(=O)NC[C@H]1CC[C@H](C(=O)N[C@@H](Cc2ccc3ccccc3c2)C(=O)NCCCC[C@H](NC(=O)N[C@@H](CCC(=O)O)C(=O)O)C(=O)O)CC1` (stereo partly drawn) [Conjugate 13, DOTAGA-n-Lys(Ruc-Sub)-n-Asp-β-Ala-TXA-L-Nal-KuE] gave an IC50 at PSMA of 0.67 ± 0.09 nM. Besides, in the data set with LNCaP cells, the “% bound of total applied dose” value was determined as 10.8 ± 2.07%. The cytotoxic effects result in the data set on PSMA+ (LNCaP) is given as “did not show cytotoxic effects”. The logD in data set [1] (pH 7.4) was -2.58 ± 0.05. In “Serum stability”, the “stable (intact) after incubation in human serum” value was 94% and the “intact after incubation in human serum” value worked out at 89%.
`CN(Cc1ccc(-c2[nH]c3cc(F)cc4c3c2CCNC4=O)cc1)C(=O)CCSSCCC(=O)NCCCCN1CCN(CC(=O)O)CCN(C(CCC(=O)N[C@H](CC(=O)O)C(=O)N[C@H](CC(=O)O)C(=O)NCCC(=O)NC[C@H]2CC[C@H](C(=O)N[C@@H](Cc3ccc4ccccc4c3)C(=O)NCCCC[C@H](NC(=O)N[C@@H](CCC(=O)O)C(=O)O)C(=O)O)CC2)C(=O)O)CCN(CC(=O)O)CC1` (stereo partly drawn) [Conjugate 14] displayed a concentration for half-maximal inhibition (IC50) on PSMA of 2.19 ± 0.37 nM. In addition, in the data set on LNCaP cells, the “% bound of total applied dose” value is given as 6.46 ± 0.98%. The same compound came in with a logD in data set [1] (pH 7.4) of -3.42 ± 0.15.
`CN(Cc1ccc(-c2[nH]c3cc(F)cc4c3c2CCNC4=O)cc1)C(=O)CCSSCCC(=O)NCCCCN1CCN(CC(=O)O)CCN(C(CCC(=O)N[C@H](CC(=O)O)C(=O)N[C@H](CC(=O)O)C(=O)N[C@H](Cc2ccc(O)cc2)C(=O)N[C@H](Cc2ccccc2)C(=O)N[C@H](Cc2ccccc2)C(=O)NCCCCCC(=O)NCCCCCC(=O)NCCCC[C@H](NC(=O)N[C@@H](CCC(=O)O)C(=O)O)C(=O)O)C(=O)O)CCN(CC(=O)O)CC1` (stereo partly drawn) [Conjugate 15]: the half-inhibitory concentration (IC50) on PSMA worked out at 4.28 ± 0.95 nM. Moreover, the “% bound of total applied dose” value in the data set with LNCaP cells came to 6.50 ± 0.50%. For the same compound, the logD in data set [1] (pH 7.4) is -3.4 ± 0.07.
With `O=C(O)CC[C@H](NC(=O)N[C@@H](CCCCNC(=O)[C@H](Cc1ccc2ccccc2c1)NC(=O)[C@H]1CC[C@H](CNC(=O)CN2CCN(CC(=O)O)CCN(CC(=O)O)CCN(CC(=O)O)CC2)CC1)C(=O)O)C(=O)O` [PSMA-617], the IC50 on PSMA came to 1.75 ± 0.16 nM. For the same compound, in the data set with LNCaP cells (60 min incubation with 0.4 nM 68Ga-labelled conjugates), the “% bound of total applied dose” value is listed as 10.23 ± 0.86%. Further, the logD in data set [1] (n-octanol/PBS pH 7.4, after radiolabeling with 68Ga, read-out: logD (n-oct/PBS)) was -3.62 ± 0.49.
Turning to `O=C([O-])CN1CCN(CC(=O)[O-])CCN(CC(=O)NCC2CCC(C(=O)N[C@@H](Cc3ccc4ccccc4c3)C(=O)NCCCC[C@H](NC(=O)N[C@@H](CCC(=O)O)C(=O)O)C(=O)O)CC2)CCN(CC(=O)[O-])CC1.[177Lu+3]` (stereo partly drawn) [^177Lu-PSMA-617], the median overall survival in the data set with late stage mCRPC is listed as 15.3 months.
